Measurements reported in the supplement of paper PMC11451515.

Columns and labels:
Experiment in all cases: AUC of viability dose-response curve (% viability x log10 dose units); higher = less sensitive
Conditions in all cases: 48 h
[1] = tested on: SEM cells
Outline: (§1)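 Leukemia cells adapted to each medium (500 or 1000 cells/well, 1536-well plates) were exposed to library compounds in DMSO for 48 h at 37°C at 11 threefold doses, 47 μM to 0.79 nM. Luminescence by CellTiter-Glo One was normalised per plate to DMSO and cell-free wells, then fitted with a four-parameter log-logistic curve on log10 dose. Curves above full viability were scaled and quality-control failures removed before area under the curve was integrated by trapezoidal rule.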

[2] = tested on: P12-Ichikawa
Outline: as §1

[3] = tested on: NOMO1
Outline: as §1

[4] = RPMI 5 mM glucose + 10% dialyzed FBS

SMILES	AUC of viability dose-response curve ([1]; HPLM + 10% dialyzed FBS)	AUC of viability dose-response curve ([1]; RPMI 5 mM glucose + 10% FBS)	AUC of viability dose-response curve [1, 4]	AUC of viability dose-response curve ([2]; HPLM + 10% dialyzed FBS)	AUC of viability dose-response curve ([2]; RPMI 5 mM glucose + 10% FBS)	AUC of viability dose-response curve [2, 4]	AUC of viability dose-response curve ([3]; HPLM + 10% dialyzed FBS)	AUC of viability dose-response curve ([3]; RPMI 5 mM glucose + 10% FBS)	AUC of viability dose-response curve [3, 4]
C[S+](=O)([O-])c1ccc(Oc2cc(F)cc(C#N)c2)c2c1[C@H](O)C(F)(F)C2	467	459	467	467	469	472	455	462	448
CC(C)C[C@H](NC(=O)[C@@H](O)[C@H](N)Cc1ccccc1)C(=O)O	453	455	454	463	447	452	451	447	439
C=CCc1ccc(O)c(-c2ccc(O)c(CC=C)c2)c1	377	308	345	251	331	319	419	388	382
NC(=O)NO	326	362	332	401	393	367	359	340	347
CCOC(=O)\C1=C\[C@@H](OC(CC)CC)[C@H](NC(C)=O)[C@@H](N)C1	416	432	414	463	460	419	440	450	454
O=C1NC(=O)/C(=C/c2ccc(-c3ccc(F)cc3O)o2)S1	445	419	427	447	420	427	430	443	422
C[C@](N)(Cc1ccc(O)c(O)c1)C(=O)O	395	417	432	427	416	398	391	387	405
CCOc1cc(CC(=O)N[C@@H](CC(C)C)c2ccccc2N2CCCCC2)ccc1C(=O)O	459	432	436	365	373	387	327	310	337
CNC(=O)C1=CC=C(C)C(=C1)N2C(=C/C(=C(/Br)C2=O)OCC3=C(F)C=C(F)C=C3)\C	461	465	455	474	466	464	465	456	466
CCOc1ccc(Cc2cc([C@@H]3O[C@H](CO)[C@@H](O)[C@H](O)[C@H]3O)ccc2Cl)cc1	465	450	468	459	466	469	470	464	476
C[C@H]1COC/2=C1/C(=O)C(=O)C3=C4CCCC(C)(C)C4=CC=C23	434	363	400	468	466	473	447	469	448
